Patent US20120046232A1, “COMPOSITIONS AND METHODS FOR REDUCING RELAPSE OF ADDICTIVE BEHAVIOR” (Medical University of South Carolina, priority 2010, published 2012)
Entries after “also recorded” stand apart in the source; their conditions may differ. Like-named read-outs stand apart in the source and are kept apart here.

How the values were obtained:
mGluR5 [1] = target: T1, mGluR5 (Rattus norvegicus, UniProt P31424); test: Cocaine relapse, chronic NAC or saline followed by acute MPEP (FIG. 3); type: in vivo
T1 construct: from tissue; host or cells: brain of living Sprague-Dawley rats (nucleus accumbens for CHPG microinjection; systemic dosing for MTEP, MPEP, Fenobam)
T1 sequence (P31424 21-1203): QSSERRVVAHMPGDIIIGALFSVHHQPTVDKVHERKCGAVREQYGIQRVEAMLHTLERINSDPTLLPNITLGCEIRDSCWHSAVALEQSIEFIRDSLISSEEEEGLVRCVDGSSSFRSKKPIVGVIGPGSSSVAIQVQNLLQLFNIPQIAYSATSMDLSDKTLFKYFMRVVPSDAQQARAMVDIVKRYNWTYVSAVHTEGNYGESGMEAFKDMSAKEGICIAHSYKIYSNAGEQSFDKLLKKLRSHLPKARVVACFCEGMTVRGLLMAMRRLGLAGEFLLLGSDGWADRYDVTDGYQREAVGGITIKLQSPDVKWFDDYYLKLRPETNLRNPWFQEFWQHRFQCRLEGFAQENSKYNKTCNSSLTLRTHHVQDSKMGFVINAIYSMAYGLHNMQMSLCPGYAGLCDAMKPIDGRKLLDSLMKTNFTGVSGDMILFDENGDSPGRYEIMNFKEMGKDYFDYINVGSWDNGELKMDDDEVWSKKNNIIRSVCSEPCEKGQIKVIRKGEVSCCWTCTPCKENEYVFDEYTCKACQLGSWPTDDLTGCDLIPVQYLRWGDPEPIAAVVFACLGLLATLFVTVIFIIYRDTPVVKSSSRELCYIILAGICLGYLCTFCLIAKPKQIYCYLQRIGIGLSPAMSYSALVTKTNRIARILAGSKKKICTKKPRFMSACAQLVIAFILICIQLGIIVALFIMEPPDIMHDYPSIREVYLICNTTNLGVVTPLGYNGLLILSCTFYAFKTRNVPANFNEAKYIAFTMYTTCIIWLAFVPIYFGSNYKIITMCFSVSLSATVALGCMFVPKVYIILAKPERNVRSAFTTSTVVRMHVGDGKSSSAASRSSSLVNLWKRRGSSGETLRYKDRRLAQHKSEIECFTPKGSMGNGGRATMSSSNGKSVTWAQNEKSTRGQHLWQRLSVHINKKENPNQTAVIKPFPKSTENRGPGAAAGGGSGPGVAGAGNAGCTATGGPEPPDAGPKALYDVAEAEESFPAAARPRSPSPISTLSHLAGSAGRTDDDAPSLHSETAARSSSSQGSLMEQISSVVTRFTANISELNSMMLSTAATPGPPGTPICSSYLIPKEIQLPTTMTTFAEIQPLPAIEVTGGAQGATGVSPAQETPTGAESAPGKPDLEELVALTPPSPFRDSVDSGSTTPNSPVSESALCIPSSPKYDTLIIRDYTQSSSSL
Experimental: Data were analyzed by a two-way ANOVA interaction F(1,20)=7.17, p=0.015; *p<0.05 comparing saline to MPEP.
Towards this end, the effects of chronic NAC followed by acute administration of mGluR5 modulator (MPEP) on relapse in the rat model were examined.
(§1) All experiments were conducted in accordance with the US National Institutes of Health guidelines for the care and use of laboratory animals, and all procedures were approved by the Institutional Animal Care and Use Committee at the Medical University of South Carolina. One week after arrival, male Sprague-Dawley rats (250 g) were anesthetized with ketamine HCl (87.5 mg kg^−1 Ketaset, Fort Dodge Animal Health) and xylazine (5 mg kg^−1 Rompum, Bayer) and implanted with intravenous catheters. The catheters were flushed daily with cefazolin (0.2 ml of a 0.1 g/ml solution) and heparin (0.2 ml of 100 units) to prevent infection and maintain catheter patency. Rats were allowed to recover for a week before behavioral training (Baker et al. Nat. Neurosci 6:743-749, 2003).
Rats were trained to self-administer cocaine in a standard operant chamber with two retractable levers. The self-administration regimen consisted of 10d of self-administration at >10 infusions per session. […] Cocaine self-administering rats were often paired with yoked saline controls. […]

mGluR5 [2] = target: T1, mGluR5; test: Cocaine+cue induced reinstatement, low-dose mGluR5 antagonists in rats given N-acetylcysteine after extinction (FIG. 6); type: in vivo; details: MPEP 1.0 mg/kg/ip or Fenobam 1.75 mg/kg/ip
Experimental: Top, treatment protocol for cocaine, N-acetylcysteine, and mGluR5 antagonists.
Rats were injected with low doses of MPEP (1.0 mg/kg/ip) or Fenobam (1.75 mg/kg/ip) (FIG. 6), both systemically active and selective mGluR5 receptor antagonists (Carroll, 2008; Montana et al., 2009).
as §1
Rats were trained to self-administer cocaine in a standard operant chamber with two retractable levers. The self-administration regimen consisted of 10d of self-administration at >10 infusions per session. […] Cocaine self-administering rats were often paired with yoked saline controls. Extinction procedures began 24 h after the rat met the acquisition criterion and lasted for at least 3 weeks. Lever presses were inconsequential throughout the extinction training

[3] = cited from earlier work
[4] = cited from earlier work; remark: listed apart in the source
[5] = cited from earlier work; remark: listed apart in the source
XC transporter = details: cited from earlier work
[6] = humans; cited from earlier work
mGluR2/3 [7] = details: intra-accumbens infusion, microdialysis probes; cited from earlier work
mGluR2/3 [8] = details: cited from earlier work; for PFC glutamate levels: infusion/perfusion into PFC, microdialysis
mGluR2/3 receptors [9] = details: perfusion into the accumbens, in vivo microdialysis; cited from earlier work
system XC− = details: cystine added to brain slices; cited from earlier work
mGluR2/3 receptors [10] = details: bath application, accumbens slices; cited from earlier work
mGluR5 [11] = target: T1, mGluR5; test: Cue-induced cocaine relapse (active lever presses), CHPG microinjected into nucleus accumbens (FIG. 1); type: in vivo, rats
Experimental: Relapse was induced by presenting the animal with a tone and light compound cue that was previously associated with cocaine delivery during the self-administration training. […] Data were analyzed using one-way ANOVA (2,14)=5.20, p=0.021; *p<0.05 compared to extinction, +p<0.05 comparing cue+aCSF (artificial cerebrospinal fluid control injection).
as §1
Rats were trained to self-administer cocaine in a standard operant chamber with two retractable levers. The self-administration regimen consisted of 10d of self-administration at >10 infusions per session. […]

[12] = rats given N-acetylcysteine after extinction training

What does the source list for `Cc1cccc(C#Cc2ccccc2)n1` [MPEP, 2-methyl-6-(phenylethynyl)pyridine]?
lever pressing (measure of relapse) (mGluR5 [1]; acute MPEP in animals treated chronically with NAC): reduced cocaine relapse; also recorded: reduced lever pressing; lever pressing (measure of relapse) (mGluR5 [1]; acute MPEP in animals treated chronically with saline): without effect and not; relapse to cocaine seeking (lever pressing) (mGluR5 [2]; [12]): significantly reduced lever pressing; also recorded: inhibit relapse; relapse to cocaine seeking (lever pressing) (mGluR5 [2]; vehicle treated rats): not

For `CC(=O)N[C@@H](CS)C(=O)O` [NAC, N-acetylcysteine], which peak concentration ([3]; 600 mg i.v. dose) is on record?
Its peak concentration is 300 µM.

And the “peak NAC plasma concentration” value ([3]; humans, 400 mg oral dose)?
Its value is 10 to 17 µM.

And the “peak NAC plasma concentration” value ([3]; humans, 600 mg oral dose)?
The value was 16 µM.

And the “time of peak NAC plasma concentration after administration” value ([3]; humans, 400 or 600 mg oral dose)?
The value was “one”.

What about the half-life ([3]; oral NAC) of the same compound?
Its half-life is 6.25 h.

And the oral bioavailability ([3]; oral NAC)?
Its oral bioavailability is 4-10%.

And the “time to peak plasma concentration following ingestion” value ([3]; oral NAC)?
The value was 1 to 2 h.

What about the side effects ([4]; clinical use) of the same compound?
Its side effects is “minimal and mostly limited to gastrointestinal discomfort; also recorded: without any noticeable side effects”.

And the toxicity ([4]; compared with cystine and cysteine)?
Its toxicity is “less toxic”.

What about the solubility [5] of the same compound?
Its solubility is “more soluble”.

What about the extinction responding (XC transporter; NAC for 2 weeks during extinction from heroin self-administration) of the same compound?
Its extinction responding is “reduces extinction responding”.

And the reinstatement (XC transporter; NAC for 2 weeks during extinction from heroin self-administration, up to one month after last injection)?
Its reinstatement is “prevents reinstatement”.

And the extinction responding (XC transporter; NAC treatment during self-administration, after chronic cocaine)?
Its extinction responding is “reduces extinction responding”.

And the “extracellular glutamate levels in the accumbens” value (XC transporter; after chronic cocaine)?
The value was “normalizes”.

And the “relapse to drug seeking” value (XC transporter; animal models of drug addiction)?
Its value is “inhibit relapse to cocaine and heroin; also recorded: prevents relapse to drug seeking”.

And the protection against relapse (XC transporter; chronic NAC during cocaine self-administration or heroin extinction, several weeks after last NAC injection)?
The protection against relapse was “enduring protection against relapse”.

And the “cocaine, nicotine and marijuana use” value [6]?
The value was “reduces but does not abolish”.

And the compulsive gambling behavior [6]?
The compulsive gambling behavior was “reduce”.

What about the “desire for cocaine use” value [6] of the same compound?
The value was “reduce”.

What about the marijuana abuse [6] of the same compound?
Its marijuana abuse is “reduce”.

And the “number of cigarettes smoked” value [6]?
Its value is “reduce”.

With `O=C(O)CCC(CP(=O)(O)O)C(=O)O` (centres unmarked) [2-PMPA, 2-(phosphonomethyl)-pentanedioic acid] as the compound, how does the basal dopamine levels (mGluR2/3 [7]) read?
The basal dopamine levels was “reduce”.

For `N[C@](CC1c2ccccc2Oc2ccccc21)(C(=O)O)[C@H]1C[C@@H]1C(=O)O` [LY341495], which “glutamate levels in subcortical regions (nucleus accumbens and VTA)” value (mGluR2/3 [8]; infusion in the prefrontal cortex) is on record?
The value was “increased”.

What about the PFC glutamate levels (mGluR2/3 [8]) of the same compound?
The PFC glutamate levels was “increase”.

What about the “extracellular glutamate in the accumbens” value (mGluR2/3 receptors [9]) of the same compound?
Its value is “increased glutamate release”.

What does the source list for `N[C@@]1(C(=O)O)CN[C@@H](C(=O)O)C1` [APDC, (2R,4R)-4-aminopyrrolidine-2,4-dycarboxylate]?
PFC glutamate levels (mGluR2/3 [8]): without effect; extracellular glutamate in the accumbens (mGluR2/3 receptors [9]): reduced extracellular glutamate levels

With `N[C@@H](CSSC[C@H](N)C(=O)O)C(=O)O` [cystine] as the compound, how does the solubility [5] read?
Its solubility is “very limited solubility”.

And the extracellular glutamate levels (system XC−)?
Its extracellular glutamate levels is “increases”.

For `N[C@H](C(=O)O)[C@H]1C[C@@H]1C(=O)O` [L-CCG1, (2S,1′S,2′S)-2-(2′-carboxycyclopropyl)glycine], which mEPSC amplitude (mGluR2/3 receptors [10]) is on record?
The mEPSC amplitude was “without affecting”.

What about the mEPSC frequency (mGluR2/3 receptors [10]) of the same compound?
The mEPSC frequency was “reduced”.

What about the paired pulse ratios (mGluR2/3 receptors [10]) of the same compound?
Its paired pulse ratios is “increased”.

With `N[C@@]1(C(=O)O)CO[C@H]2[C@H](C(=O)O)[C@H]21` [LY379268] as the compound, how does the basal dopamine levels (mGluR2/3 [7]) read?
The basal dopamine levels was “reduce”.

Which results are given for `CN1CC(=O)N=C1NC(=O)Nc1cccc(Cl)c1` [Fenobam, 1-(3-chlorophenyl)-3-(3-methyl-5-oxo-4H-imidazol-2-yl)urea]?
relapse to cocaine seeking (lever pressing) (mGluR5 [2]; [12]): significantly reduced lever pressing; also recorded: inhibit relapse; relapse to cocaine seeking (lever pressing) (mGluR5 [2]; vehicle treated rats): not

Which basal dopamine levels (mGluR2/3 [7]) does the source give for `N[C@]1(C(=O)O)[C@H]2[C@@H](C[C@H]1OCc1ccc(Cl)c(Cl)c1)[C@]2(F)C(=O)O` [MGS0039] here?
Its basal dopamine levels is “increase”.

With `CC(N)(C(=O)O)c1ccc(P(=O)(O)O)cc1` (stereo not drawn) [MPPG, α-methyl-4-phosphonophenylglycine] as the compound, how does the basal dopamine levels (mGluR2/3 [7]) read?
Its basal dopamine levels is “increase”.

Which “relapse induced by agonist alone” value (mGluR5 [11]; CHPG alone, without cue) does the source give for `NC(C(=O)O)c1cc(O)ccc1Cl` (centres unmarked) [CHPG] here?
Its value is “did not induce relapse”.

What about the “cue-induced relapse (active lever presses)” value (mGluR5 [11]; CHPG into nucleus accumbens plus tone and light cue, rats withdrawn 3-5 weeks after cocaine self-administration) of the same compound?
The value was “dose-dependant increase”.

Which basal dopamine levels (mGluR2/3 [7]) does the source give for `N[C@H](C(=O)O)C1[C@@H](C(=O)O)[C@@H]1C(=O)O` (stereo partly drawn) [DCG-4, (2S,1′R,2′R,3′R)-2-(2,3-dicarboxycyclopropyl)glycine] here?
The basal dopamine levels was “reduce”.
